Test results published in patent publication US20260124309A1, “STAT6 DEGRADERS AND USES THEREOF” (Kymera Therapeutics, Inc., priority 2023, published 2026).

Legend:
[1] = molecular target: T1, STAT6 (Homo sapiens, UniProt P42226); assay: STAT6 MSD degradation in A549 cells; assay type: cell-based; conditions: 24 h
T1 construct: endogenous in cells; host or cells: A549
T1 sequence (P42226 1-847): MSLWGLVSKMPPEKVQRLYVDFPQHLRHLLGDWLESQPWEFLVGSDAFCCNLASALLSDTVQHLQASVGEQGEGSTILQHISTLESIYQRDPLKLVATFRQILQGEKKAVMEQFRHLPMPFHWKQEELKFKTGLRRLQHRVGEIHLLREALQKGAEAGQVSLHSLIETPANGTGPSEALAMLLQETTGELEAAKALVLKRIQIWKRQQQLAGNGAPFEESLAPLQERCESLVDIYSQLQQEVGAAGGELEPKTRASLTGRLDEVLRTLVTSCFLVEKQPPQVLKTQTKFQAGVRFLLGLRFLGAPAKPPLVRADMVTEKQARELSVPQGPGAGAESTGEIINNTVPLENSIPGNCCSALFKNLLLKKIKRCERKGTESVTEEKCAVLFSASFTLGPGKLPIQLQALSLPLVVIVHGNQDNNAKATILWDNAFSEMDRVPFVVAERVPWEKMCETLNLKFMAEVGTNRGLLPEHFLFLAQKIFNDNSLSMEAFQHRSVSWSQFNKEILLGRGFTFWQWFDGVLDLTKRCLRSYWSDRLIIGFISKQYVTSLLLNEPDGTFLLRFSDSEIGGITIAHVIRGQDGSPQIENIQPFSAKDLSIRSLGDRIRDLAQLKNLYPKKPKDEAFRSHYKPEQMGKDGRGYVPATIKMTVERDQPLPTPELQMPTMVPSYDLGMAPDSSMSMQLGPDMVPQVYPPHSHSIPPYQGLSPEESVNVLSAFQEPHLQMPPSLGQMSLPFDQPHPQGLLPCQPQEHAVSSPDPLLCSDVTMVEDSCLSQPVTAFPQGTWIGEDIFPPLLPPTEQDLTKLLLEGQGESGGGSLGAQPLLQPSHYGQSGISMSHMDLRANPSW
Procedure: Degradation of STAT6 in cells was quantitatively measured using Meso Scale Discovery (MSD) technology. A549 cells were seeded in 96-well plates with a density of 1.5×10e4 to 5×10e5 cells per well in 100 μl fresh media. Compounds were then added to the assay plates with a final top concentration of up to 10 uM in a 1:3 dilution series with total of 9 doses. The assay plates were then incubated for 4 to 24 hours at 37° C. under 5% CO2. The assay plates were then centrifuged for 5 minutes and the cell pellets were treated with 100 μl/well RIPA lysis buffer (Boston Bioproducts, BP-115D) with protease and phosphatase inhibitors (Roche, 05892791001 and 04906837001). To prepare the MSD assay plates (MSD, L15XA), the plates were coated with the capture antibody (Abnova, H00006778) in PBS, at 40 μl/well. The plates were then incubated overnight at 4° C., washed 1 time with 150 μl/well TBST buffer (Cell Signaling Technology, #9997S) and blocked with 150 μl/well blocking buffer (MSD, R93BA-4). Cell lysates were then added to MSD assay plates and the plates were incubated at room temperature for 1 hour. The plates were then washed 3 times with 150 μl/well TBST buffer and 25 μl/well primary detection antibody (Cell Signaling Technology, #5397S). The assay plates were then incubated at room temperature for 1 hour, washed 3 times with 150 μl/well TBST buffer, and 25 μl/well secondary detection antibody, SULFO-TAG anti-rabbit antibody (MSD, R32AB-1) were added. The assay plates were then incubated at room temperature for 1 hour, washed 3 times with 150 μl/well TBST buffer, and 150 μl/well MSD reading buffer (MSD, R92TC-2) were added. The plates were then analyzed by an MSD reader. The data was analyzed by GraphPad Prism and the dose dependent STAT6 degradation was fit using the four-parameter inhibitor vs. response nonlinear regression.
The letter codes for DC50 (nM) include: A (<1 nM); B (1-10 nM); C (>10-100 nM); D (>100-1000 nM); E (>1000 nM); and F (not tested). The letter codes for Dmax (oo) include: A (>90%); B (>70-90%); C (>50-70%); D ([…]); and F (not tested).

[2] = molecular target: T2, biotinylated truncated STAT6 (123-632)-avi (Homo sapiens, UniProt P42226); assay: STAT6 HTRF binding assay; conditions: HTRF binding, 0.15 nM biotinylated truncated STAT6 (123-632)-avi, 20 nM fluorescein-labeled probe
T2 construct: biotinylated truncated STAT6 (123-632)-avi purified from E. coli; made in house; host or cells: E. coli
T2 sequence (P42226 123-632 limits assumed): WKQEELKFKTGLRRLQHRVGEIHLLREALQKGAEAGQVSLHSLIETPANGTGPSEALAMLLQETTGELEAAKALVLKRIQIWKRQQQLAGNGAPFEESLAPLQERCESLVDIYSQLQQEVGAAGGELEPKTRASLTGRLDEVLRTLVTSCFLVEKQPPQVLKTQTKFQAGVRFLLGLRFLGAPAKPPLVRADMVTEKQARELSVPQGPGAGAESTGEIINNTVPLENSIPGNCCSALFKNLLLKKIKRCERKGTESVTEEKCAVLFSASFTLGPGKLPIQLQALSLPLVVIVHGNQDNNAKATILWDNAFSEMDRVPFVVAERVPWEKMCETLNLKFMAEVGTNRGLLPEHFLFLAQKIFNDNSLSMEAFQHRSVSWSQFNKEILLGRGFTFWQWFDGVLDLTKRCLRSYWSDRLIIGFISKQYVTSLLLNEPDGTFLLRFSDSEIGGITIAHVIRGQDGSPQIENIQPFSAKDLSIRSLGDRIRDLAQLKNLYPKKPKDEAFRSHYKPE
Procedure: HTRF binding assays were performed using 0.15 nM biotinylated truncated STAT6 (123-632)-avi purified from E. coli, 1× Streptavidin-terbium (CisBio) prepared by mixing SA-Tb in PPI detection buffer (CisBio), 20 nM proprietary fluorescein-labeled probe, and test compounds in assay buffer consisting of 50 mM HEPES-Na pH 7.5, 100 mM NaCl, 1 mM EDTA, 2 mM DTT, 0.1% Tween-20 with a final volume of 20 uL. Compound stocks were dissolved at 10 mM in 100% DMSO and 11 point titration with 3 fold serial dilution was performed in white, opaque 384 well microplates. Reaction plates were incubated at room temperature for 30 minutes. Plates were centrifuged at low rpm for 5 mins, and the ratio of fluorescence intensities were measured at emission wavelengths for fluorescein acceptor (520 nm) and terbium donor (495 nm) on Envision Plate reader. % Inhibition was calculated from the 520/495 ratio generated by using proprietary positive control compound for 100% inhibition and DMSO only reactions for 0% inhibition. Data was processed and dose response curves were generated using GraphPad Prism to determine the concentration required for inhibiting 50% of the HTRF signal (IC50).
The letter codes for IC50 (μM) include: A (<0.1 μM); B (0.1-1 μM); C (>1-10 μM); D (>10-100 μM); E (>100 μM); and F (not tested).

[3] = molecular target: T3, STAT6-HiBiT (Homo sapiens, UniProt P42226); assay: STAT6 HiBiT degradation in A549 (STAT6-HiBiT) cells; assay type: cell-based; conditions: 24 h
T3 construct: Degradation of STAT6 in endogenously tagged STAT6-HiBiT A549 cells; endogenous in cells; host or cells: A549 (STAT6-HiBiT) knock-in cells
T3 sequence (P42226 1-847): T1 sequence (P42226 1-847)
Procedure: Degradation of STAT6 in endogenously tagged STAT6-HiBiT A549 cells was quantitatively measured using the Nano-Glo HiBiT Lytic Detection System (Promega, 3040). A549 (STAT6-HiBiT) cells were seeded in 384-well plates with a density of 1.25k cells per well in 20 μl fresh media. Compounds were then added to the assay plates using the Apricot S3 with a final top concentration of up to 10 uM in a 4-fold dilution series with total of 10 doses. The assay plates were then incubated for 24 hours at 37° C. under 5% CO2. At the assay endpoint, 20 μL of Nano-Glo HiBiT Lytic Reagent was added to each well and agitated on a plate shaker at 300 rpm for 10 minutes at room temperature. Luminescence was read on PHERAStar FSX Instrument (Is integration time). The data was analyzed by GraphPad Prism and the dose dependent STAT6 degradation was fit using the four-parameter inhibitor vs. response nonlinear regression.
The letter codes for DC50 (nM) include: A (<1 nM): B (1-10 nM); C (>10-100 nM); D (>100-1000 nM); E (>1000 nM); and F (not tested). The letter codes for Dmax (%) include: A (>90%); B (>70-90%); C (>50-70%); D (<50%); and E (not tested).

CN(C)C(=O)c1cc2c(-c3ccc(C4CCN(c5ccc(C6CCC(=O)NC6=O)cc5F)CC4)cc3)cc(C3=CCCN(C(=O)CCn4ccnn4)C3)c(F)c2[nH]1 (centres unmarked) [Example I-1015, 6-(1-(3-(1H-1,2,3-triazol-1-yl)propanoyl)-1,2,5,6-tetrahydropyridin-3-yl)-4-(4-(1-(4-(2,6-dioxopiperidin-3-yl)-2-fluorophenyl)piperidin-4-yl)phenyl)-7-fluoro-N,N-dimethyl-1H-indole-2-carboxamide]
DC50 [1]: < 1 nM
Dmax [1]: 70 to 90%
IC50 [2]: < 100 nM
DC50 [3]: < 1 nM
Dmax [3]: > 90%
